Some test systems named below: A549; DU-145; EKVX; HCT-15; HOP-62; HT-29; KM12; MCF7; NCI-H522; OVCAR-8; SF-268; SF-295; SK-MEL-5; SNB-19; T47D; UO-31; HL-60; K562; NCI/ADR-RES; Malme-3M.
Common to all, as to assay: growth of human tumour cells (NCI), 48 h

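All cell lines were grown in 96-well plates and treated with compound for 48 hours. Here, GI50 denotes the concentration required for 50% inhibition of growth.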 Active and inactive are the calls of the source. Cut-off read from the data, not from the text of the source: active = GI50 up to about 1.1 µM and inactive = higher.

In the case of `CN(C)C(=O)C(NCCO)c1ccccc1` (configuration not stated), the GI50 was > 100 µM (inactive) with A549; > 100 µM (inactive) in the experiment on DU-145; > 100 µM (inactive) in the experiment with EKVX; over 100 µM in the experiment with HCT-15; > 100 µM (inactive) with HOP-62; 57.7 µM (inactive) with HT-29. Further, the GI50 with KM12 was 85.7 µM (inactive); in the experiment with MCF7, > 100 µM (inactive); in the experiment on NCI-H522, > 100 µM (inactive); with OVCAR-8 it was > 100 µM (inactive); in the experiment on SF-268, > 100 µM (inactive); in the experiment on SF-295, > 100 µM (inactive). In addition, the GI50 was 52.8 µM (inactive) with SK-MEL-5, > 100 µM (inactive) in the experiment with SNB-19, 53.3 µM (inactive) in the experiment on T47D and > 100 µM (inactive) with UO-31.

Take `O=C(Nc1nnc(-c2c(Cl)c(Cl)c(Cl)c(Cl)c2-c2nc3cc(C(=O)c4ccccc4)ccc3[nH]2)o1)c1ccc(Cl)cc1`: the GI50 with A549 is 25.6 µM (inactive); in the experiment on DU-145 it was 58.6 µM (inactive); in the experiment on EKVX it was 25.9 µM (inactive); in the experiment on HCT-15, 22.5 µM; in the experiment on HL-60 it was 20.3 µM (inactive); in the experiment on HOP-62, 12.8 µM (inactive). The GI50 in the experiment with HT-29 is 37.9 µM (inactive); in the experiment with K562 it was 7.91 µM (inactive); in the experiment on KM12, 43.5 µM (inactive); with MCF7 it was 20.2 µM (inactive); in the experiment on NCI/ADR-RES it was 26.7 µM (inactive); with OVCAR-8, 39.2 µM (inactive). Also, the GI50 in the experiment with SF-295 is 5.86 µM (inactive); in the experiment on SK-MEL-5 it was 12.2 µM (inactive); with SNB-19 it was 34 µM (inactive); in the experiment with T47D, 30.5 µM (inactive); in the experiment with UO-31, 41.7 µM (inactive).

For `O=C(N/N=C\c1c(O)ccc2ccccc12)c1ccncc1`, the GI50 in the experiment with A549 was 0.789 µM (active); in the experiment with DU-145 it was 2.88 µM (inactive); in the experiment on HCT-15, 0.0991 µM; in the experiment with HL-60 it was 0.518 µM (active); with HOP-62, 1.31 µM (inactive); with HT-29, 1.7 µM (inactive). Besides, the GI50 was 0.0553 µM (active) in the experiment with K562; 2.7 µM (inactive) with KM12; 3.09 µM (inactive) in the experiment with MCF7; 0.638 µM (active) in the experiment on NCI-H522; 0.562 µM (active) in the experiment with NCI/ADR-RES; 0.574 µM (active) in the experiment on OVCAR-8. The GI50 is 0.341 µM (active) with SF-268; > 5.98 µM (inactive) in the experiment with SF-295; 0.341 µM (active) in the experiment on SK-MEL-5; 1.21 µM (inactive) in the experiment on SNB-19; 2.49 µM (inactive) in the experiment with T47D; 0.356 µM (active) in the experiment on UO-31.

As to `CCn1ncc(Oc2c(Cl)cc(N)cc2Cl)c(Cl)c1=O`, the GI50 was 30.5 µM (inactive) in the experiment with A549; 60.8 µM (inactive) in the experiment with DU-145; 34.9 µM (inactive) with EKVX; 27.8 µM with HCT-15; 34.2 µM (inactive) in the experiment with HL-60; 44.9 µM (inactive) in the experiment with HOP-62. The GI50 with HT-29 was 25.3 µM (inactive); in the experiment on K562, 35.1 µM (inactive); with KM12 it was 34.8 µM (inactive); with MCF7, 38.7 µM (inactive); in the experiment with Malme-3M, 32.9 µM (inactive); in the experiment on NCI/ADR-RES, 31 µM (inactive). For the same compound, the GI50 in the experiment on OVCAR-8 is 56.5 µM (inactive); in the experiment with SF-268 it was 31 µM (inactive); in the experiment with SF-295 it was 29 µM (inactive); with SK-MEL-5, 24 µM (inactive); in the experiment on SNB-19 it was 33.4 µM (inactive); in the experiment on T47D it was 50.2 µM (inactive). For the same compound, the GI50 with UO-31 was 47.4 µM (inactive).

For the compound `CC(=O)c1cccc(NC(=O)C(=O)C(c2cnc3ccc([N+](=O)[O-])cc3n2)[N+](=O)[O-])c1` (configuration not stated), the GI50 with DU-145 is > 100 µM (inactive); with EKVX, > 100 µM (inactive); with HCT-15, over 100 µM; in the experiment with HL-60 it was 37.9 µM (inactive); in the experiment on HOP-62, > 100 µM (inactive); with HT-29, > 100 µM (inactive). In addition, the GI50 in the experiment on K562 was > 100 µM (inactive); in the experiment with KM12, 54.1 µM (inactive); with MCF7, > 100 µM (inactive); with Malme-3M, > 100 µM (inactive); in the experiment with NCI/ADR-RES it was 95.5 µM (inactive); in the experiment on OVCAR-8, > 100 µM (inactive). The GI50 with SF-268 was > 100 µM (inactive); with SF-295, 66.7 µM (inactive); in the experiment on SNB-19 it was > 100 µM (inactive); in the experiment on T47D, > 100 µM (inactive); in the experiment on UO-31, 38.5 µM (inactive).

As to `O=C(OCc1ccccc1)c1nc2ccccc2n1S(=O)(=O)c1ccccc1`, the GI50 with A549 was > 100 µM (inactive); in the experiment on DU-145 it was > 100 µM (inactive); with EKVX, > 100 µM (inactive); with HCT-15 it was over 100 µM; with HL-60, > 100 µM (inactive); in the experiment on HOP-62, > 100 µM (inactive). For the same compound, the GI50 with HT-29 is > 100 µM (inactive); with K562 it was > 100 µM (inactive); in the experiment on KM12, > 100 µM (inactive); with Malme-3M it was 88.9 µM (inactive); with NCI/ADR-RES it was > 100 µM (inactive); in the experiment with OVCAR-8 it was > 100 µM (inactive). The GI50 in the experiment on SF-268 is > 100 µM (inactive); in the experiment with SF-295, > 100 µM (inactive); in the experiment on SK-MEL-5 it was 80.4 µM (inactive); in the experiment with SNB-19 it was > 100 µM (inactive); with T47D, 59.2 µM (inactive); with UO-31, > 100 µM (inactive).

As to `CSC1=C(c2ccc(Cl)cc2)SC(N2CCCCC2)N1c1ccc([N+](=O)[O-])cc1` (configuration not stated), the GI50 in the experiment on A549 was 29.2 µM (inactive); with EKVX, 40.6 µM (inactive); with HCT-15, 26.1 µM; with HL-60 it was 25.5 µM (inactive); in the experiment on HOP-62 it was 20 µM (inactive); with HT-29 it was 30.6 µM (inactive). Further, the GI50 with K562 was 33 µM (inactive); with KM12 it was 31 µM (inactive); in the experiment with MCF7, 35.6 µM (inactive); in the experiment with Malme-3M it was 45.2 µM (inactive); with NCI-H522, 24.2 µM (inactive); with NCI/ADR-RES, 26.7 µM (inactive). Besides, the GI50 was 32.1 µM (inactive) in the experiment on OVCAR-8; 41.3 µM (inactive) in the experiment with SF-268; 24 µM (inactive) in the experiment on SF-295; 14.6 µM (inactive) in the experiment with SK-MEL-5; 28.8 µM (inactive) with SNB-19; 23.9 µM (inactive) in the experiment with T47D. The GI50 with UO-31 is 32.7 µM (inactive).

Consider `COc1cccc([C@@H]2C/C(=N\NC(=O)C(=O)N[C@@H](C)c3ccccc3)c3ccccc3N2)c1`, for which the GI50 is 46.1 µM (inactive) in the experiment with A549; > 100 µM (inactive) with DU-145; 61.4 µM (inactive) in the experiment on EKVX; over 100 µM in the experiment on HCT-15; 76.6 µM (inactive) in the experiment with HOP-62; 32.1 µM (inactive) with K562. In addition, the GI50 in the experiment with KM12 is 10.1 µM (inactive); with MCF7, 7.05 µM (inactive); in the experiment on NCI/ADR-RES it was 65.2 µM (inactive); with SF-268, 71 µM (inactive); in the experiment on SF-295 it was 73.1 µM (inactive); in the experiment on SK-MEL-5, 14.5 µM (inactive). Also, the GI50 is 24.6 µM (inactive) in the experiment with SNB-19, 51.6 µM (inactive) with T47D and > 100 µM (inactive) with UO-31.

For `N#Cc1c(N)nc(-c2ccc(Cl)cc2)c2c1-c1ccccc1S(=O)(=O)CC2`, the GI50 in the experiment on A549 was > 100 µM (inactive); in the experiment with DU-145, 74.5 µM (inactive); in the experiment on HCT-15 it was over 100 µM; with HOP-62, 35.7 µM (inactive); in the experiment on HT-29, > 100 µM (inactive); in the experiment with K562, > 100 µM (inactive). Moreover, the GI50 with KM12 is > 100 µM (inactive); with Malme-3M, > 100 µM (inactive); in the experiment on NCI-H522, 31 µM (inactive); with NCI/ADR-RES, 52.5 µM (inactive); in the experiment on OVCAR-8, 34 µM (inactive); in the experiment with SF-268, 53.6 µM (inactive). The GI50 was > 100 µM (inactive) with SK-MEL-5, 29.1 µM (inactive) in the experiment on SNB-19, > 100 µM (inactive) with T47D and > 100 µM (inactive) with UO-31.

Turning to `CC1=NNC(=O)C1C1C(=O)NN=C(c2c[nH]c3ccccc23)C1Br` (configuration not stated), the GI50 in the experiment with A549 is 41.8 µM (inactive); in the experiment on DU-145, > 100 µM (inactive); in the experiment on EKVX it was 53.5 µM (inactive); in the experiment on HCT-15, over 100 µM; with HL-60, 37.3 µM (inactive); in the experiment with HOP-62, 40.1 µM (inactive). Further, the GI50 in the experiment on HT-29 was 35.3 µM (inactive); with K562 it was 31.7 µM (inactive); with KM12, 16.6 µM (inactive); with Malme-3M, 30.3 µM (inactive); in the experiment on NCI-H522, 16.4 µM (inactive); with NCI/ADR-RES, 47.5 µM (inactive). The GI50 is 48.9 µM (inactive) with OVCAR-8; 32.7 µM (inactive) in the experiment on SF-268; 17.7 µM (inactive) with SF-295; 37.8 µM (inactive) with SK-MEL-5; 37.8 µM (inactive) in the experiment on SNB-19; 42.1 µM (inactive) in the experiment on T47D. In addition, the GI50 in the experiment with UO-31 is 48 µM (inactive).

With `C=C1C(=O)O[C@H]2C(=O)[C@H](C)CCC/C(C)=C/CC[C@@]3(C)O[C@@H]3C[C@@H]12`, the GI50 in the experiment on A549 is 5.82 µM (inactive); in the experiment on DU-145, 2.56 µM (inactive); in the experiment on HCT-15 it was 1.56 µM; in the experiment on HL-60 it was 2.72 µM (inactive); in the experiment with HOP-62, 11.6 µM (inactive); with HT-29 it was 1.9 µM (inactive). The GI50 with K562 is 2.07 µM (inactive); in the experiment on KM12 it was 4.3 µM (inactive); in the experiment on MCF7 it was 3.02 µM (inactive); in the experiment on NCI-H522, 1.67 µM (inactive); in the experiment on NCI/ADR-RES it was 14 µM (inactive); in the experiment on OVCAR-8, 1.69 µM (inactive). Further, the GI50 in the experiment with SF-268 is 4.54 µM (inactive); with SF-295, 14 µM (inactive); in the experiment with SK-MEL-5 it was 7.59 µM (inactive); in the experiment with SNB-19, 11.4 µM (inactive); with T47D, 2.01 µM (inactive); with UO-31, 1.62 µM (inactive).

Source of the values: ChEMBL document CHEMBL1201862, “PubChem BioAssay data set” (2004).
